The target in assay [1] is T1, Cannabinoid receptor 2 (Homo sapiens, UniProt P34972). The assay is described as follows: biochemical.
Assay [2] deals with T2, Acetylcholinesterase (Homo sapiens, UniProt P22303).
Description: Inhibition of recombinant human AChE assessed as inhibition constant for enzyme-substrate-inhbitor complex using acetylthiocholine iodide as substrate preincubated for 20 mins followed by substrate addition and measured for 3 mins by spectrophotometry based Lineweaver-Burk plot analysis
For assay [3], the target named is T1, Cannabinoid receptor 2. The assay is described as follows: Agonist activity at CB2R in human U266 cells assessed as reduction in STAT3 gene expression at 50 uM pretreated for 30 mins with AM630 incubated for 2 hrs by qRT-PCR analysis. Format: cell-based. In general terms: In qPCR the cycle at which signal appears reflects the starting amount.
Assay [4] concerns the target Cannabinoid receptor 1 (Homo sapiens) (UniProt P21554). The assay is described as follows: Agonist activity at human CB1R expressed in CHO-K1 cells assessed as increase in intracellular calcium mobilization by calcein4-AM dye based fluorescence assay. In kind it is functional, cell-based.
Assay [5] deals with T1, Cannabinoid receptor 2. The assay is described as follows: Agonist activity at CB2R in human U266 cells assessed as reduction in STAT3 gene expression at 50 uM incubated for 2 hrs by qRT-PCR analysis. Format: cell-based.
For assay [6], the target named is T1, Cannabinoid receptor 2. The assay is described as follows: Agonist activity at CB2R in human U266 cells assessed as reduction in MIF gene expression at 50 uM pretreated for 30 mins with AM630 and incubated for 2 hrs by qRT-PCR analysis. In kind it is cell-based.
Assay [7] has as its target T1, Cannabinoid receptor 2. The assay is described as follows: Agonist activity at human CB2R expressed in CHO-K1 cells assessed as increase in intracellular calcium mobilization by calcein4-AM dye based fluorescence assay relative to control. In kind it is functional, cell-based.
For assay [8], the target named is T1, Cannabinoid receptor 2. The assay is described as follows: Agonist activity at CB2R in human U266 cells assessed as reduction in MIF gene expression at 50 uM incubated for 2 hrs by qRT-PCR analysis. In kind it is cell-based.
The target in assay [9] is T2, Acetylcholinesterase. The source holds these as a separate data set.
Description: Inhibition of recombinant human AChE assessed as inhibition constant for enzyme-inhibitor complex using acetylthiocholine iodide as substrate preincubated for 20 mins followed by substrate addition and measured for 3 mins by spectrophotometry based Lineweaver-Burk plot analysis
Assay [10] concerns the target T1, Cannabinoid receptor 2.
Assay [11] deals with T2, Acetylcholinesterase. The assay is described as follows: Inhibition of recombinant human AChE at 10 uM using acetylthiocholine iodide as substrate preincubated for 20 mins followed by substrate addition and measured for 3 mins by spectrophotometry based Ellman's method relative to control.
In assay [12] the target is Cholinesterase (Homo sapiens) (UniProt P06276). The assay is described as follows: Inhibition of human BChE at 10 uM using butyrylthiocholine iodide as substrate preincubated for 20 mins followed by substrate addition and measured for 3 mins by spectrophotometry based Ellman's method relative to control.
Assay [13] deals with Cannabinoid receptor 1 (Homo sapiens) (UniProt P21554). The assay is described as follows: Binding affinity at human CB1R expressed in CHO cells at 10 uM incubated for 3 hrs by microbeta scintillation counting relative to control. Format: cell-based.

The values that follow come from ChEMBL document CHEMBL4354814 (J Med Chem, 2019).

The source made the active and inactive calls. The rule behind the calls is not given here. Some results are limits rather than exact numbers.

T1 sequence (P34972 whole entry): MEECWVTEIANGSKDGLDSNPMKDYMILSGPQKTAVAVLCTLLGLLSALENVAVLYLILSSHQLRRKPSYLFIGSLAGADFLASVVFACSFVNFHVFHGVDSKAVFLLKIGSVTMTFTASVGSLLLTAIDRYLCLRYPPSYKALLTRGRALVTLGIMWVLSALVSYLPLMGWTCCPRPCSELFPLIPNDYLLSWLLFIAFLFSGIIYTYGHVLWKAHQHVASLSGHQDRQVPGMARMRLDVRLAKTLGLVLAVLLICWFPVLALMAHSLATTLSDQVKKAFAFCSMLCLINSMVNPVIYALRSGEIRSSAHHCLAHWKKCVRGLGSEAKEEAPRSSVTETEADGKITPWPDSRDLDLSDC
Sequence of Cannabinoid receptor 1 (Homo sapiens) (P21554 whole entry): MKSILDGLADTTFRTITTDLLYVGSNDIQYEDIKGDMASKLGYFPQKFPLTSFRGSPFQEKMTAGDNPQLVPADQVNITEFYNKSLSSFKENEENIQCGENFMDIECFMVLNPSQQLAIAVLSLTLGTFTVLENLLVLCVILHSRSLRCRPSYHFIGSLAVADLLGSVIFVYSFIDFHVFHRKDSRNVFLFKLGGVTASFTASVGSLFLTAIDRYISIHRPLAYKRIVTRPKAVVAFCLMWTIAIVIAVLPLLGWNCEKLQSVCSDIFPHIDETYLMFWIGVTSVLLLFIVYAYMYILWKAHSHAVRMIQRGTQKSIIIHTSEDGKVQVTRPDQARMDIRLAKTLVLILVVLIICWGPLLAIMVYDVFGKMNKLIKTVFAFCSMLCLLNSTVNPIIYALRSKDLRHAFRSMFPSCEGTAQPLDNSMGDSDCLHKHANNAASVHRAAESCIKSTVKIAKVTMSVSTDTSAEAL
T2 sequence (P22303 whole entry): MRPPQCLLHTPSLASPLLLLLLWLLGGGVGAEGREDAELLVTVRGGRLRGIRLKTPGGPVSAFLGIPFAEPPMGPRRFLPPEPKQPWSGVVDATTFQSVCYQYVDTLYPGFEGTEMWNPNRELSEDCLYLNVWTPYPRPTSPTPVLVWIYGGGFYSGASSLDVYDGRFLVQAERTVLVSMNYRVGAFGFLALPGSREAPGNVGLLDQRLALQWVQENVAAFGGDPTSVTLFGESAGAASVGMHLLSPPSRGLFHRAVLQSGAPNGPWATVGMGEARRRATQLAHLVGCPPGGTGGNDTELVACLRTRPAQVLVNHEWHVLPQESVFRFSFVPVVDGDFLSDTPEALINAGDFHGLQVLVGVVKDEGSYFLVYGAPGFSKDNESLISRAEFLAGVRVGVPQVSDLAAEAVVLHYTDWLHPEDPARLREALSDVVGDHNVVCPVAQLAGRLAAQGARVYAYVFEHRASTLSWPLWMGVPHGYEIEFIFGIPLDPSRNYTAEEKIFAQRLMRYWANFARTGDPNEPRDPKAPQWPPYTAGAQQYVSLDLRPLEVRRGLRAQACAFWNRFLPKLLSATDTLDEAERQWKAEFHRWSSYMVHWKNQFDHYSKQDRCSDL
Sequence of Cholinesterase (Homo sapiens) (P06276 whole entry): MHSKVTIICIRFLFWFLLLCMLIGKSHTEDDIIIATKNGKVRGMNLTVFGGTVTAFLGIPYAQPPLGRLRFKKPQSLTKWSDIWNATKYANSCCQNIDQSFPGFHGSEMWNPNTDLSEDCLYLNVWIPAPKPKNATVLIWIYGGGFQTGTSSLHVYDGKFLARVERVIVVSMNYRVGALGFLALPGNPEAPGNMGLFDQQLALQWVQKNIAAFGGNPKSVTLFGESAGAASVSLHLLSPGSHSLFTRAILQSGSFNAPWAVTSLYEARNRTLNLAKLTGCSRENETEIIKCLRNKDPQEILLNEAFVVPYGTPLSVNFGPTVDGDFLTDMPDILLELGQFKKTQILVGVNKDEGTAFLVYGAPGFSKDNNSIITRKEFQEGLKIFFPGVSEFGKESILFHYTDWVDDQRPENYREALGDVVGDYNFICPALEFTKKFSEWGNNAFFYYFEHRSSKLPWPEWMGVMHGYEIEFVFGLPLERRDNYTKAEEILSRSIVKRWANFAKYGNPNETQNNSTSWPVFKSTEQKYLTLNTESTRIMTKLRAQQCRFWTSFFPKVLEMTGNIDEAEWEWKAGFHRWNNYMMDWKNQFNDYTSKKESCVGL

`CCOc1ccc(Cc2nc3cc(C(=O)N(CC)CC)ccc3n2CCCNc2c3c(nc4ccccc24)CCCC3)cc1`: the Ki (usually a measure of affinity in units of concentration, obtained from inhibition or displacement) at Cannabinoid receptor 2 [1] turned out to be 30700 nM.
As for `CCOc1ccc(Cc2nc3cc(C(=O)N(CC)CC)ccc3n2CCCCCCNc2c3c(nc4ccccc24)CCCC3)cc1`, the Ki is 206 nM at Acetylcholinesterase [2] and 88.5 nM at Acetylcholinesterase [9]. Besides, the outcome at Cannabinoid receptor 2 [3], at Cannabinoid receptor 2 [5], on Cannabinoid receptor 2 [6] and on Cannabinoid receptor 2 [8] was Active. In addition, the outcome in [4] was inactive. In addition, the Emax (in general, the maximal effect, on the per cent scale that the assay sets) on Cannabinoid receptor 2 [7] was 51%.
`CCOc1ccc(Cc2nc3cc(C(=O)NCCSSCCNc4c5c(nc6ccccc46)CCCC5)ccc3n2CCC(C)C)cc1`: the Ki worked out at 27.9 nM at Acetylcholinesterase [2] and 16.7 nM on Acetylcholinesterase [9].
Consider `CCOc1ccc(Cc2nc3cc(C(=O)NCCCCNc4c5c(nc6ccccc46)CCCC5)ccc3n2CCC(C)C)cc1`, for which the result on Cannabinoid receptor 2 [3], at Cannabinoid receptor 2 [5], on Cannabinoid receptor 2 [6] and at Cannabinoid receptor 2 [8] was Active. Besides, in [4], the result was inactive. Besides, on Cannabinoid receptor 2 [7], the maximum response (Emax) was 39%. Besides, the EC50 – broadly, the concentration giving half of the maximal effect – at Cannabinoid receptor 2 [10] came to 911 nM.
For the molecule `CCOc1ccc(Cc2nc3cc(C(=O)NCCOCCOCCNc4c5c(nc6ccccc46)CCCC5)ccc3n2CCC(C)C)cc1`, the result at Cannabinoid receptor 2 [3], on Cannabinoid receptor 2 [5], on Cannabinoid receptor 2 [6] and at Cannabinoid receptor 2 [8] was Active.
Turning to `CCOc1ccc(Cc2nc3cc(C(=O)N(CC)CC)ccc3n2CCC(C)C)cc1`, the outcome at Cannabinoid receptor 2 [3], on Cannabinoid receptor 2 [5], on Cannabinoid receptor 2 [6] and at Cannabinoid receptor 2 [8] was Active. In addition, the inhibition (at Acetylcholinesterase [11]; in assay [12]) was below 10% each time. The molecule also came in with an Activity in assay [13] of 24%.
